ChEMBL document CHEMBL1201862, “PubChem BioAssay data set” (2004)
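Interpolation was linear, between the two tested concentrations surrounding the appropriate level; five concentrations were tested over 48 hours in 96-well plates. The concentration for 50% growth inhibition is given as GI50.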 The source made the active and inactive calls. No stated cut-off is given here; in the data, active = GI50 up to about 1.1 µM and inactive = higher. Bridge positions count the residues as written; N and C are the ends. Where a SMILES comes first, the peptide text is derived from it. Peptide text beside a SMILES is read from it. [ ]: non-standard residue; d: D form. * marks the point of attachment. Aoe = N[C@@H](CCCCCC(=O)[C@@H]1CO1)C(=O)O; Cbz = O=C(OCc1ccccc1)*

Experiments:
Assay in all cases: NCI tumour cell line growth inhibition, 48 h
CCRF-CEM = tested on: CCRF-CEM
EKVX = tested on: EKVX
HCC 2998 = tested on: HCC 2998
HOP-62 = tested on: HOP-62
HOP-92 = tested on: HOP-92
HT-29 = tested on: HT-29
M14 = tested on: M14
MOLT-4 = tested on: MOLT-4
NCI-H23 = tested on: NCI-H23
NCI-H522 = tested on: NCI-H522
OVCAR-5 = tested on: OVCAR-5
SF-268 = tested on: SF-268
SF-295 = tested on: SF-295
SK-MEL-5 = tested on: SK-MEL-5
U-251 = tested on: U-251
A498 = tested on: A498
NCI-H226 = tested on: NCI-H226
NCI-H460 = tested on: NCI-H460

SMILES	GI50 (CCRF-CEM)	GI50 (EKVX)	GI50 (HCC 2998)	GI50 (HOP-62)	GI50 (HOP-92)	GI50 (HT-29)	GI50 (M14)	GI50 (MOLT-4)	GI50 (NCI-H23)	GI50 (NCI-H522)	GI50 (OVCAR-5)	GI50 (SF-268)	GI50 (SF-295)	GI50 (SK-MEL-5)	GI50 (U-251)	GI50 (A498)	GI50 (NCI-H226)	GI50 (NCI-H460)
O=C(O)c1ccccc1C(=O)Nn1cnnc1	> 100 µM (inactive)	> 100 µM (inactive)	> 100 µM (inactive)	> 100 µM (inactive)	> 100 µM (inactive)	> 100 µM (inactive)	> 100 µM (inactive)	> 100 µM (inactive)	> 100 µM (inactive)	> 100 µM (inactive)	> 100 µM (inactive)	> 100 µM (inactive)	> 100 µM (inactive)	> 100 µM (inactive)	> 100 µM (inactive)			
COC(=O)c1c(-c2ccc(Cl)cc2)cc2c3ccccc3n(C)c2c1C(=O)OC	7.85 µM (inactive)	> 100 µM (inactive)		> 100 µM (inactive)	> 100 µM (inactive)	91.6 µM (inactive)	> 100 µM (inactive)	23.1 µM (inactive)	> 100 µM (inactive)	67.5 µM (inactive)	> 100 µM (inactive)	> 100 µM (inactive)	> 100 µM (inactive)	> 100 µM (inactive)	> 100 µM (inactive)	> 100 µM (inactive)	> 100 µM (inactive)	49.8 µM (inactive)
O=C(Nc1ccccc1)c1cc(S(=O)(=O)Nc2nc3cccnc3[nH]2)c(SSc2cc(Cl)c(C(=O)Nc3ccccc3)cc2S(=O)(=O)Nc2nc3cccnc3[nH]2)cc1Cl	> 100 µM (inactive)	> 100 µM (inactive)	> 100 µM (inactive)	> 100 µM (inactive)	> 100 µM (inactive)	> 100 µM (inactive)	> 100 µM (inactive)	> 100 µM (inactive)	> 100 µM (inactive)	> 100 µM (inactive)	> 100 µM (inactive)	> 100 µM (inactive)	> 100 µM (inactive)	> 100 µM (inactive)	> 100 µM (inactive)	> 100 µM (inactive)	> 100 µM (inactive)	> 100 µM (inactive)
CC1(c2ccc(Cl)s2)CC(c2ccc(Cl)s2)=C(C#N)C(=C(C#N)C#N)N1 (configuration not stated)	16 µM (inactive)	18.2 µM (inactive)	18.9 µM (inactive)	18.8 µM (inactive)	15.4 µM (inactive)	19.2 µM (inactive)	19.4 µM (inactive)	28.1 µM (inactive)	21.2 µM (inactive)		19.4 µM (inactive)	20.7 µM (inactive)	15 µM (inactive)	15.2 µM (inactive)	17.3 µM (inactive)	19.4 µM (inactive)	26.9 µM (inactive)	29 µM (inactive)
O=c1cc(N2CCCC2)[nH]c(=O)n1-c1cccc(Cl)c1	> 100 µM (inactive)	> 100 µM (inactive)	> 100 µM (inactive)	> 100 µM (inactive)	> 100 µM (inactive)	> 100 µM (inactive)	> 100 µM (inactive)	> 100 µM (inactive)	> 100 µM (inactive)	> 100 µM (inactive)	> 100 µM (inactive)	> 100 µM (inactive)	> 100 µM (inactive)		> 100 µM (inactive)	> 100 µM (inactive)	> 100 µM (inactive)	> 100 µM (inactive)
O=C1N[C@@H](Cc2ccccc2)C(=O)N2CCC[C@@H]2C(=O)N[C@@H](CCCCCC(=O)[C@@H]2CO2)C(=O)N[C@H]1Cc1ccccc1 [TRAPOXIN B] (cyclo(FF[dP][Aoe]))	0.0151 µM (active)	0.0632 µM (active)	0.0343 µM (active)	< 0.000212 µM (active)	0.00574 µM (active)	< 0.000212 µM (active)	0.000597 µM (active)	< 0.000212 µM (active)		0.00052 µM (active)	0.00197 µM (active)	0.0119 µM (active)	0.0145 µM (active)	0.000497 µM (active)	0.0027 µM (active)	0.518 µM (active)	0.222 µM (active)	0.011 µM (active)
CC1(C)[C@@H]2C[C@H]1C(Cc1cccc(C[C@H]3c4cc(-c5ccccn5)ncc4[C@H]4C[C@@H]3C4(C)C)c1)c1cc(-c3ccccn3)ncc12 (some centres not stated)	0.337 µM (active)		0.923 µM (active)	1.28 µM (inactive)		0.951 µM (active)	0.485 µM (active)	0.312 µM (active)	1.82 µM (inactive)	1.63 µM (inactive)	1.12 µM (active)	0.513 µM (active)	0.92 µM (active)	0.303 µM (active)	0.514 µM (active)	3.51 µM (inactive)		0.689 µM (active)
O=c1[nH]/c(=C/c2ccc3c(c2)OCO3)c(=O)[nH]/c1=C/c1ccc2c(c1)OCO2	> 10 µM (inactive)	> 10 µM (inactive)	> 10 µM (inactive)	> 10 µM (inactive)	> 10 µM (inactive)	> 10 µM (inactive)	> 10 µM (inactive)	> 10 µM (inactive)	> 10 µM (inactive)	> 10 µM (inactive)	> 10 µM (inactive)	> 10 µM (inactive)	> 10 µM (inactive)	> 10 µM (inactive)	> 10 µM (inactive)	> 10 µM (inactive)	> 10 µM (inactive)	> 10 µM (inactive)
Cc1nc(=O)[nH]c2c1C(=O)N(C(C)C)C(NC(C)C)S2 (configuration not stated)	> 100 µM (inactive)	> 100 µM (inactive)	> 100 µM (inactive)	> 100 µM (inactive)	97.7 µM (inactive)	> 100 µM (inactive)	> 100 µM (inactive)	> 100 µM (inactive)	> 100 µM (inactive)	47.2 µM (inactive)	> 100 µM (inactive)		> 100 µM (inactive)	> 100 µM (inactive)	> 100 µM (inactive)	> 100 µM (inactive)	> 100 µM (inactive)	
Cc1ccc(-n2cc([Si](C)(C)C)nn2)s1			81.3 µM (inactive)		> 100 µM (inactive)	34.8 µM (inactive)	> 100 µM (inactive)		68.4 µM (inactive)	> 100 µM (inactive)	> 100 µM (inactive)	> 100 µM (inactive)	> 100 µM (inactive)	45.4 µM (inactive)	> 100 µM (inactive)	> 100 µM (inactive)	> 100 µM (inactive)	> 100 µM (inactive)
CNC(=O)C1CCCCNC(=O)CCC(NC(=O)OCc2ccccc2)C(=O)N1 (stereo not drawn) (Cbz-Glu-Lys-NHMe; lactam 1-2; configuration not given here)	> 100 µM (inactive)	> 100 µM (inactive)		> 100 µM (inactive)	> 100 µM (inactive)	> 100 µM (inactive)	> 100 µM (inactive)	> 100 µM (inactive)	> 100 µM (inactive)	> 100 µM (inactive)	> 100 µM (inactive)	> 100 µM (inactive)	> 100 µM (inactive)	> 100 µM (inactive)	> 100 µM (inactive)	39.5 µM (inactive)	> 100 µM (inactive)	> 100 µM (inactive)
CCN(CCC#N)C(=O)Nc1ccccc1	> 100 µM (inactive)	> 100 µM (inactive)	> 100 µM (inactive)	> 100 µM (inactive)	> 100 µM (inactive)	> 100 µM (inactive)	> 100 µM (inactive)	> 100 µM (inactive)	> 100 µM (inactive)	> 100 µM (inactive)	> 100 µM (inactive)		> 100 µM (inactive)	> 100 µM (inactive)	> 100 µM (inactive)		> 100 µM (inactive)	> 100 µM (inactive)
